In patent US20120088827A1 (Profectus Biosciences, Inc., priority 2009, published 2012):
Read-outs that look alike come from different tables or passages of the source.

Assays:
[1] = system: NF-κB driven transcription (pNF-κB-luc reporter, 293 cells); assay: 293/NF-kB-luc reporter cell assay; assay type: cell-based; settings: Homo sapiens; compound 2 hours, then 20 ng/ml TNF-α for 18 hours; luminescence
Procedure: (§1) Two reporter cell assays were used to determine the ability of the compounds of Examples 1-12 to inhibit NF-κB driven transcription. The first assay was a 293-cell based assay with a stably integrated pNF-κB-luc reporter plasmid containing 3 NF-κB promoter elements. The second assay was a 293-cell based assay with a stably integrated pTRH1-NF-κB-dscGFP reporter containing 4 NF-κB promoter elements. Cells were treated with 0, 0.2, 1, 10, 20 and 40 μM of the compounds of Example 1-12 for 2 hours then were induced with 20 ng/ml TNF-α for 18 hours. Following the induction, luminescence or fluorescence was quantified using a Beckman-Coulter 2300 plate reader. […] As a control, 0.5% DMSO treated and untreated cells were compared to verify that the compounds of Examples 1-12 had no effect on the expression of luciferase or in the readout of the assay. There was a slight decrease in the output from the assay in the DMSO treated population although it was not statistically significant. As a result of the controls, the decrease in activity in the drug treated samples was compared to the DMSO control sample.

[2] = target: T1, NF-κB p65 (Homo sapiens, UniProt Q04206); assay: TransAM NF-κB Family DNA Binding ELISA, p65
T1 construct: purchased Active Motif
T1 sequence (Q04206 whole entry): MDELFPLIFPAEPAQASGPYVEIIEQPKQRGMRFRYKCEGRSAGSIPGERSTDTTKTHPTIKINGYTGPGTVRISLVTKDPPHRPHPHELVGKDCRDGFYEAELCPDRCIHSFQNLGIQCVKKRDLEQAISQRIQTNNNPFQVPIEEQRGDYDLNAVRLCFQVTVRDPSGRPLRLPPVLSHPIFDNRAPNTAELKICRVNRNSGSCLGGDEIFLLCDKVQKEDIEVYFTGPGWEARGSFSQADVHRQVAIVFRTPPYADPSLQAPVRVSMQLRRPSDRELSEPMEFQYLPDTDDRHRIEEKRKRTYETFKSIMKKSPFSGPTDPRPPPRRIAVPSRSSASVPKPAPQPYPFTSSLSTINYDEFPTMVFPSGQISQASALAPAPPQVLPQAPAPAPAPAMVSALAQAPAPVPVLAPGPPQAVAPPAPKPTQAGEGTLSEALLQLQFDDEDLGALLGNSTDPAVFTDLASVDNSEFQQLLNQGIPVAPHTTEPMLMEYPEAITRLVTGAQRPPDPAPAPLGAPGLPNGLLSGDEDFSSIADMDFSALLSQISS
Procedure: The binding activity of NF-κB heterodimer or homodimer subunits from activated nuclear extracts or purified recombinant NF-κB proteins exposed to the drug compounds was evaluated using the TransAM NF-κB Family binding ELISA (Active Motif). Approximately 3-5 μg of nuclear extracts from TNFα activated Hela or Raji cells (Active Motif) or 20 ng of purified recombinant proteins (p65 and p50 from Active Motif, p52 from Santa Cruz) were incubated for 1 hour at room temperature with 20 μL drug compounds diluted in Complete Lysis buffer without DTT. Treated samples were then transferred to 30 μL Complete Binding Buffer (with DTT) in microplate wells pre-coated with the NF-κB consensus oligonucleotide. […] The plate was incubated for 1 hour at room temperature with gentle shaking and then washed 3 times with 200 μL 1× Wash Buffer. NF-κB p65, p50, p52, RelB, or c-Rel subunits bound to the plate were detected with 100 μL of the primary antibody (diluted 1:1000 in 1× Antibody Buffer) specific for that subunit. The plate was incubated for 1 hour at room temperature and then washed 3 times with 200 μL 1× Wash Buffer. Next, 100 μL of a HRP conjugated goat anti-rabbit antibody (diluted 1:1,000 in 1× Antibody Buffer) was added to each well. The plate was incubated for 1 hour at room temperature and then washed 4 times with 200 μL 1× Wash Buffer. 100 μL of room temperature Developing Solution was added to each well. The reaction was allowed to develop for 2-10 minutes until a medium dark blue color developed (depending on the subunit activity in the lot of extract or lot of recombinant protein used) and then the reaction was stopped with 100 μL Stop Solution yielding a yellow color. Absorbance was recorded using a Becton-Dickinson DTX 880 Multimode Detector at 450 nm with a reference wavelength subtracted at 620 nm.

[3] = system: IL-6; assay: Inhibition of IL-6 release in LPS-stimulated RAW 264.7 cells; assay type: cell-based; settings: Mus musculus, RAW264.7; pretreated 2 hours, 1 μg/mL LPS 20-24 hours
Procedure: RAW 264.7 cells were seeded at 4×10^4 cells per well in complete growth medium in 96 well white TC plates with clear bottoms one day prior to the assay. The next day the cells were washed once and 100 μL fresh growth media was added. Cells were pretreated with 0.5 μL from a 6 point 200× dilution series of the test compounds in DMSO for 2 hours. Following pretreatment with the drugs, the inflammatory response was induced by adding 5 μL of a 20 μg/mL solution of LPS (Sigma). The cells were incubated in the presence of the drugs and 1 μg/mL LPS for another 20-24 hours. Typically after treatment the total DMSO was […] of the culture volume and the final concentrations of the compounds were approximately: 40, 20, 10, 1, 0.2 and 0 μM depending on the MW of each compound. Modified dilution series were prepared as needed to get adequate dose response curves without changing the % DMSO. Samples were run in duplicate or triplicate and included DMSO treated control wells with and without LPS stimulation. Drugs with a known activity such as Parthenolide or DHMEQ were run as experimental controls. After 20-24 hours LPS activation, the media supernatant was collected from the cells and replaced with fresh media. The supernatant samples were cleared by centrifugation at 1,000×g for 5 minutes, transferred to fresh storage plates, and stored frozen at −30° C.
After determining the appropriate supernatant dilutions experimentally, mIL-6 levels in the supernatants were quantified using Quantikine™ mouse IL-6 Immunoassay (R&D Systems) according to the manufacturer's protocol. Approximately 50 μL of the supernatants diluted in Calibrator Diluent were added to 50 μL of Assay Diluent in microplate wells pre-coated with an anti-mouse IL-6 capture antibody. Controls included a calibrated positive IL-6 control sample, non-specific binding (NSB) wells containing Calibrator Diluent but no IL-6, and a recombinant mouse IL-6 standard dilution series (10-1000 pg/mL). The plates were incubated at room temperature for 2 hours with shaking and then washed 5 times with 400 μL 1× Wash Buffer. Approximately 100 μL of an HRP-conjugated anti-mouse IL-6 antibody was added to each well to detect IL-6 captured on the plate. The plates were incubated at room temperature for 2 hours and then washed 5 times with 400 μl 1× Wash Buffer. Equal volumes of Color Reagents A and B were mixed and 100 μL of this HRP Substrate Solution was added to each well on the plate. The blue color was allowed to develop for 30 minutes and then the reaction was stopped using 100 μL of Stop Solution yielding a yellow color. Absorbance at 450 nm with a reference wavelength subtracted at 595 nm was recorded using a Becton-Dickinson DTX 880 Multimode Detector.
The concentration of mIL-6 in the unknown samples was determined from a curve-fit of the mIL-6 standard absorbance data and multiplying by the dilution factor. The maximum activity achieved in the absence of the inhibitor (DMSO+LPS treated wells) was arbitrarily given a value of 100%; likewise the minimum activity in the absence of the stimulant (no LPS) was assigned a value of 0% Inhibition of the amount of mIL-6 cytokine released in the drug treated wells was calculated relative to the maximum activation in the DMSO+LPS treated control wells (i.e., % inhibition=100−(drug+LPS treated)/(DMSO+LPS treated)). Dose response curves were used to determine the effective concentration to inhibit 50% of the mIL-6 cytokine released (IC50) by means of a SigmaPlot macro which fits a sigmoidal dose-response curve to the (log 10) μM concentration versus % inhibition. […] This technique yields an objective value for the IC50 provided that 50% inhibition was approached at the concentrations tested.

[4] = system: NF-κB driven transcription (pTRH1-NF-κB-dscGFP reporter, 293 cells); assay: NF-kB/293/GFP reporter cell assay; assay type: cell-based; settings: Homo sapiens, HEK293; compound 2 hours, then 20 ng/ml TNF-α for 18 hours; fluorescence
Procedure: as §1

[5] = binding to NF-κB consensus oligonucleotide, read-out: p65 binding IC50

IC50 [2, 5] | SMILES | EC50 [1] | EC50 [3] | EC50 [4] | IC50 [2]
7.3 µM | O=C(Nc1ccccc1)OC1C(NC(=O)c2ccccc2O)=CC(=O)C2OC21 (racemic) [Example 11, (±)-3-(2-hydroxybenzamido)-5-oxo-7-oxabicyclo[4.1.0]hept-3-en-2-yl phenylcarbamate] | 3.3 µM | 0.87 µM | 4.3 µM | –
116 µM | CC(C)(C)CC(=O)Oc1ccccc1C(=O)NC1=CC(=O)C2OC2C1OC(=O)CC(C)(C)C (racemic) [Example 9, (±)-2-(2-(3,3-dimethylbutanoyloxy)-5-oxo-7-oxabicyclo[4.1.0]hept-3-en-3-ylcarbamoyl)phenyl 3,3-dimethylbutanoate] | 15 µM | 1.4 µM | 16 µM | –
– | CCOP(=O)(OCC)Oc1ccccc1C(=O)NC1=CC(=O)C2OC2C1O (racemic) [Example 10, (±)-diethyl 2-(2-hydroxy-5-oxo-7-oxabicyclo[4.1.0]hept-3-en-3-ylcarbamoyl)phenyl phosphate] | 24 µM | 6 µM | 13 µM | 59 µM

SMILES | IC50 [2, 5] | EC50 [1] | EC50 [3] | EC50 [4] | IC50 [2]
O=C(NC1=CC(=O)C2OC2C1O)c1ccccc1OP(=O)(OCc1ccccc1)OCc1ccccc1 (racemic) [Example 12, (±)-dibenzyl 2-(2-hydroxy-5-oxo-7-oxabicyclo[4.1.0]hept-3-en-3-ylcarbamoyl)phenyl phosphate] | > 320 µM | > 26 µM | > 26 µM | > 26 µM | –
